According to patent US9663508B2, “Biaryl acyl-sulfonamide compounds as sodium channel inhibitors” (AMGEN INC., priority 2013, dated 2017):
pIC50: −log10 of the molar value. Read-outs that look alike come from different tables or passages of the source.

Legend:
human Nav 1.5 = human Nav 1.5 (Homo sapiens (Human), UniProt Q14524); experiment: Nav 1.5 IonWorks Quattro (IWQ) in vitro assay; format: cell-based
Protocol: Nav 1.7 or Nav 1.5 Ion Works Quattro (IWQ) In Vitro Assay
HEK 293 Cells stably transfected with either human Nay 1.7 or human Nay 1.5 were recorded in population patch-clamp mode with the IonWorks® Quattro automated electrophysiology system in accordance with the manufacturer's specifications (Molecular Devices, LLC, Sunnyvale, Calif.). Sodium channel currents were measured in response to a train of depolarizations that induced successively greater inactivation.
Cells were held at −110 mV for three seconds (Nav 1.7) or half a second (Nav 1.5) from a holding voltage of −15 mV, then put through a series of 26 pulses of 150 msec duration to −20 mV at a frequency of 5 Hz. Cells were then left unclamped for a period of 3 to 8 minutes while a single concentration of test compound was added. Cells were then reclamped and put through the same voltage protocol. Current at the end of the 26th pulse to −20 mV was subtracted from the peak current evoked by the 26th pulse to −20 mV to correct for leak current. Percent block was calculated for each concentration in duplicate, and IC50 curves were fitted to percent block as a function of concentration.

human Nav1.7 = human Nav1.7 (Homo sapiens (Human), UniProt Q15858); experiment: Nav 1.7 in vitro PatchXpress (PX) assay; format: cell-based
Chain of human Nav1.7 (Q15858 whole entry): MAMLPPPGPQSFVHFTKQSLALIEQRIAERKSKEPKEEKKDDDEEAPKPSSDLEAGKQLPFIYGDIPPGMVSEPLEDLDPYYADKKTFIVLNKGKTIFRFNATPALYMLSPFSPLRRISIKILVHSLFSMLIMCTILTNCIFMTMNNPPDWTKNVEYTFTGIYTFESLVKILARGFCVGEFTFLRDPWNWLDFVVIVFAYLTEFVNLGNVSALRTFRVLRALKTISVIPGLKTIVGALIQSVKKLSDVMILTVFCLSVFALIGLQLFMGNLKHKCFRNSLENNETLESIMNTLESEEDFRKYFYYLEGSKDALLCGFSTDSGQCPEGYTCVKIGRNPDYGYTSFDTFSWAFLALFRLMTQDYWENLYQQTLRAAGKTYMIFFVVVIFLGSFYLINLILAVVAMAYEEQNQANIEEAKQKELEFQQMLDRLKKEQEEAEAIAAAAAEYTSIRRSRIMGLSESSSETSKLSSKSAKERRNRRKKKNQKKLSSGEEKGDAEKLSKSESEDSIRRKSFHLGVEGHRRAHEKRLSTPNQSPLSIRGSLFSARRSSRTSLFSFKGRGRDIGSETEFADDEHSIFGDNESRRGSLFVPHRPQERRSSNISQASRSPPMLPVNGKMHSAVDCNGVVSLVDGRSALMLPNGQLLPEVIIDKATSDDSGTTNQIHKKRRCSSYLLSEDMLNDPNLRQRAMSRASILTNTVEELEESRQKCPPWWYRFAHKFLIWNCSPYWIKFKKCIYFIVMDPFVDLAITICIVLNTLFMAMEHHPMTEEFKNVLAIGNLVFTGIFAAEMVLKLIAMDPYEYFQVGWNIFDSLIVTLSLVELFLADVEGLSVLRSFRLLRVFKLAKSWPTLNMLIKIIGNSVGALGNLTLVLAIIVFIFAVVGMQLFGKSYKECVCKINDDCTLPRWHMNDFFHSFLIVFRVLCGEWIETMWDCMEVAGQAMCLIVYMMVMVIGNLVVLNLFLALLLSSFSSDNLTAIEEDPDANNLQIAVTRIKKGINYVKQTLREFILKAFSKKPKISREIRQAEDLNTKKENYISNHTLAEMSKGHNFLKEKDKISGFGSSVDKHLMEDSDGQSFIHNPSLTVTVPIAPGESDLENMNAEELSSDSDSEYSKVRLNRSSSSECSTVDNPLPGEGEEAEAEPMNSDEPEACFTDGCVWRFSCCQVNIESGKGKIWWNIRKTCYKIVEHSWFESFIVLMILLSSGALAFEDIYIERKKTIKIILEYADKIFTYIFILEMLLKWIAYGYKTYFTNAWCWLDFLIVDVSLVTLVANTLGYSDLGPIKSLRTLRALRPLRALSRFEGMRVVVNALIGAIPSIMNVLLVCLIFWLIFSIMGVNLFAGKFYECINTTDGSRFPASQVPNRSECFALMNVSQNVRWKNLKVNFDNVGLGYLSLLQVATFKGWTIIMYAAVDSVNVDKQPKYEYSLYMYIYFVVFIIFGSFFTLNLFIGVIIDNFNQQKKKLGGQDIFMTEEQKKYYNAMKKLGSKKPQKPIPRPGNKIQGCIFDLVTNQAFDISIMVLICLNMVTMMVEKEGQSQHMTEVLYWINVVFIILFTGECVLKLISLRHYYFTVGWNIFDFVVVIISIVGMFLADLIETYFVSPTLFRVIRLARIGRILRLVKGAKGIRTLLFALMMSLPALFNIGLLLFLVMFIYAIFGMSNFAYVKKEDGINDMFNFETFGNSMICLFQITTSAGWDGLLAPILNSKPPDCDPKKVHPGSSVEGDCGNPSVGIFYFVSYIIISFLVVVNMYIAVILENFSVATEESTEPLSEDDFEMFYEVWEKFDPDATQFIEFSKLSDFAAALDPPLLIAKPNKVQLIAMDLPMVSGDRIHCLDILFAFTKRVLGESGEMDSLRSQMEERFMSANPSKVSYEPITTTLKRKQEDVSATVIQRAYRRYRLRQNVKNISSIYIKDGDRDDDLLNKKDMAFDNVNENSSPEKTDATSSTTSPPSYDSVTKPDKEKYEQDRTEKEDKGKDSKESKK

[1] = in-vitro Nav 1.5 IWQ data, read-out: NAV 1.5 IWQ (IC50)

Chain of human Nav 1.5 (Q14524 whole entry): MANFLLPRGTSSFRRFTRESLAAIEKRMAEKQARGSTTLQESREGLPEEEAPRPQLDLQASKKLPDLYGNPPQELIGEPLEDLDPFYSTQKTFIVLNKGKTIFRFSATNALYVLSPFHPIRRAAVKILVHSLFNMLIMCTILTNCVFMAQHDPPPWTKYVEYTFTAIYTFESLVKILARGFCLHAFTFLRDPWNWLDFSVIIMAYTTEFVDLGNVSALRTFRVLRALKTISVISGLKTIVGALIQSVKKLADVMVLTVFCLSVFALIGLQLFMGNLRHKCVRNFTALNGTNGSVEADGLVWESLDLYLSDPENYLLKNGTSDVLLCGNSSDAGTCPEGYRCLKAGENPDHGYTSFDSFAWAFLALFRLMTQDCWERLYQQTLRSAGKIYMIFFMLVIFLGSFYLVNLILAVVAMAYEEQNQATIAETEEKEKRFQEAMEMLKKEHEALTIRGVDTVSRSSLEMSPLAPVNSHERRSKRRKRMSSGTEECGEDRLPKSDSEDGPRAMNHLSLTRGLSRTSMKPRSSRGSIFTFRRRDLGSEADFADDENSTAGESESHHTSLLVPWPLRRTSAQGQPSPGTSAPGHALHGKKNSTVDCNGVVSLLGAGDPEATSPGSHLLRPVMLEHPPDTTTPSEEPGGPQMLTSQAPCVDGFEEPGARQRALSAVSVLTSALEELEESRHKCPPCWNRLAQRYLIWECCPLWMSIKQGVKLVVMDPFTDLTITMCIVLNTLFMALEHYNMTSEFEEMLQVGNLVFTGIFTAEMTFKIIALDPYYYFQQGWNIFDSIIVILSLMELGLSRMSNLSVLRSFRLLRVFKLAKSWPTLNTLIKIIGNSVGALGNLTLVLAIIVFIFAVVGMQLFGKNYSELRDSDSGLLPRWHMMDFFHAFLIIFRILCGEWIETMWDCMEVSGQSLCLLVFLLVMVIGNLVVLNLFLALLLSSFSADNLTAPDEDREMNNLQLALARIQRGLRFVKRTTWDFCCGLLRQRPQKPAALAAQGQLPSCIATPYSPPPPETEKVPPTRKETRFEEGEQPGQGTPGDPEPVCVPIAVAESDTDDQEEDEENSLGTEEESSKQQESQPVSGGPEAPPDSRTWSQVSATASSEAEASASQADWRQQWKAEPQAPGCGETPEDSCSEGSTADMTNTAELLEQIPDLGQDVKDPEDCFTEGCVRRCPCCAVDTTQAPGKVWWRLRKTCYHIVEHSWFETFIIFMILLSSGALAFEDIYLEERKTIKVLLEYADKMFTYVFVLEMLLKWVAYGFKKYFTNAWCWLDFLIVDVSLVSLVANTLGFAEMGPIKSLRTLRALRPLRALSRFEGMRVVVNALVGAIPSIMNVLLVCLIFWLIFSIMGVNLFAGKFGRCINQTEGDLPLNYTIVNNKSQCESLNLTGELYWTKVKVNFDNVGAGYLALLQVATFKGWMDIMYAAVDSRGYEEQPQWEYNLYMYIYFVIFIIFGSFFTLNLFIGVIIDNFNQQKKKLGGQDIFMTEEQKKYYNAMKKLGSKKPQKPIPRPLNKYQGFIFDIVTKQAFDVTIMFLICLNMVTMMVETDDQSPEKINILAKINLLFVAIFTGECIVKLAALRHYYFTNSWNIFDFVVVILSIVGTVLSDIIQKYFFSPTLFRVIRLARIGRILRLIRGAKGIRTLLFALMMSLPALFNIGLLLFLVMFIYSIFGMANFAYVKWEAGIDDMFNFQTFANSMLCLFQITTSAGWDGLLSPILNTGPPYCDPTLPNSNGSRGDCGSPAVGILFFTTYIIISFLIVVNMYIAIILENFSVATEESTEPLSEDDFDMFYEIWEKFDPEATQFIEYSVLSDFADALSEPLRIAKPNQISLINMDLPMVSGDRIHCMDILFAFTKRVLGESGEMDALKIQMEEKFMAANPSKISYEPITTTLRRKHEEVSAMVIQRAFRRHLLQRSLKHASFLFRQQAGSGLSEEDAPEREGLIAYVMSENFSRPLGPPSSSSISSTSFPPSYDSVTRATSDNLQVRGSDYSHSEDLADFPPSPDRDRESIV

Row | SMILES | pIC50 (human Nav 1.5; read-out: NAV 1.5 IWQ IC50) | pIC50 (human Nav1.7) | pIC50 (human Nav 1.5; [1]) | pIC50 (human Nav1.7; in-vitro Nav 1.7 PX data) | pIC50 (human Nav 1.5)
1 | Cc1cc(Br)ccc1Oc1ncc(-c2cc(F)c(C(=O)NS(C)(=O)=O)cc2C)cc1Cl [Example 614, 4-(6-(4-bromo-2-methylphenoxy)-5-chloro-3-pyridinyl)-2-fluoro-5-methyl-N-(methylsulfonyl)benzamide] | < 5.52 | 7.17 | – | – | –
2 | Cc1cc(C(=O)NS(C)(=O)=O)c(F)cc1-c1cnc(OCc2nc3ccccc3s2)c(Cl)c1 [Example 636, 4-(6-(1,3-benzothiazol-2-ylmethoxy)-5-chloro-3-pyridinyl)-2-fluoro-5-methyl-N-(methylsulfonyl)benzamide] | < 5.52 | 7.25 | – | – | –
3 | C[C@@](Oc1ncc(-c2cc(F)c(C(=O)NS(C)(=O)=O)cc2F)cc1Cl)(c1ccccc1)C(F)(F)F [Example 566, 4-(5-chloro-6-((1R)-2,2,2-trifluoro-1-methyl-1-phenylethoxy)-3-pyridinyl)-2,5-difluoro-N-(methylsulfonyl)benzamide, 4-(5-chloro-6-((1S)-2,2,2-trifluoro-1-methyl-1-phenylethoxy)-3-pyridinyl)-2,5-difluoro-N-(methylsulfonyl)benzamide] | < 5.52 | 7.14 | – | – | –
4 | Cc1cc(C(=O)NS(C)(=O)=O)c(F)cc1-c1cnc(Oc2c(C)cccc2C(C)(C)C)c(Cl)c1 [Example 633, 4-(6-(2-tert-butyl-6-methylphenoxy)-5-chloro-3-pyridinyl)-2-fluoro-5-methyl-N-(methylsulfonyl)benzamide] | < 5.52 | 7.08 | – | – | –
5 | CC[C@H](Cc1ccccc1)Oc1ncc(-c2cc(F)c(C(=O)NS(C)(=O)=O)cc2Cl)cc1Cl [Example 593, 4-(6-(((1R)-1-benzylpropyl)oxy)-5-chloro-3-pyridinyl)-5-chloro-2-fluoro-N-(methylsulfonyl)benzamide, 4-(6-(((1S)-1-benzylpropyl)oxy)-5-chloro-3-pyridinyl)-5-chloro-2-fluoro-N-(methylsulfonyl)benzamide] | < 5.52 | 7.01 | – | – | –
6 | Cc1cc(C(=O)NS(C)(=O)=O)c(F)cc1-c1cnc(Oc2cc(F)c(Cl)c(F)c2)c(Cl)c1 [Example 668, 4-(5-chloro-6-(4-chloro-3,5-difluorophenoxy)-3-pyridinyl)-2-fluoro-5-methyl-N-(methylsulfonyl)benzamide] | < 5.00 | 7.01 | – | – | –
7 | Cc1cc(C(=O)NS(C)(=O)=O)c(F)cc1-c1cnc(O[C@](C)(c2ccccc2)C(F)(F)F)c(Cl)c1 [Example 587, 4-(5-chloro-6-((1R)-2,2,2-trifluoro-1-methyl-1-phenylethoxy)-3-pyridinyl)-2-fluoro-5-methyl-N-(methylsulfonyl)benzamide, 4-(5-chloro-6-((1S)-2,2,2-trifluoro-1-methyl-1-phenylethoxy)-3-pyridinyl)-2-fluoro-5-methyl-N-(methylsulfonyl)benzamide] | < 5.52 | 7.09 | – | – | –
8 | Cc1cc(C(=O)NS(C)(=O)=O)c(F)cc1-c1cnc(OCc2cccc3ncccc23)c(Cl)c1 [Example 654, 4-(5-chloro-6-(5-quinolinylmethoxy)-3-pyridinyl)-2-fluoro-5-methyl-N-(methylsulfonyl)benzamide] | < 5.52 | 7.04 | – | – | –
9 | Cc1cc(C(=O)NS(C)(=O)=O)c(F)cc1-c1cnc(O[C@H](C)c2ccc(F)cc2Cl)c(Cl)c1 [Example 652, 4-(5-chloro-6-((1R)-1-(2-chloro-4-fluorophenyl)ethoxy)-3-pyridinyl)-2-fluoro-5-methyl-N-(methylsulfonyl)benzamide, 4-(5-chloro-6-((1S)-1-(2-chloro-4-fluorophenyl)ethoxy)-3-pyridinyl)-2-fluoro-5-methyl-N-(methylsulfonyl)benzamide] | < 5.52 | 7.18 | – | – | –
10 | Cc1cc(C(=O)NS(C)(=O)=O)c(F)cc1-c1cnc(Oc2c(Cl)cccc2Cl)c(Cl)c1 [Example 627, 4-(5-chloro-6-(2,6-dichlorophenoxy)-3-pyridinyl)-2-fluoro-5-methyl-N-(methylsulfonyl)benzamide] | < 5.52 | 7.16 | – | – | –
11 | COc1cc(C(=O)NS(C)(=O)=O)c(F)cc1-c1cnc(O[C@H]2C[C@H]3CC[C@@H]2C3)c(Cl)c1 [Example 703, 4-(6-((1R,2S,4S)-bicyclo[2.2.1]hept-2-yloxy)-5-chloro-3-pyridinyl)-2-fluoro-5-methoxy-N-(methylsulfonyl)benzamide] | < 5.52 | 7.11 | – | – | –
12 | CC[C@@H](Oc1ncc(-c2cc(F)c(C(=O)NS(C)(=O)=O)cc2C)cc1Cl)c1ccc(Cl)cc1 [Example 640, 4-(5-chloro-6-(((1R)-1-(4-chlorophenyl)propyl)oxy)-3-pyridinyl)-2-fluoro-5-methyl-N-(methylsulfonyl)benzamide, 4-(5-chloro-6-(((1S)-1-(4-chlorophenyl)propyl)oxy)-3-pyridinyl)-2-fluoro-5-methyl-N-(methylsulfonyl)benzamide] | < 5.52 | 7.04 | – | – | –
13 | Cc1cc(C(=O)NS(C)(=O)=O)c(F)cc1-c1cnc(Oc2c(Cl)cc(F)cc2Cl)c(Cl)c1 [Example 644, 4-(5-chloro-6-(2,6-dichloro-4-fluorophenoxy)-3-pyridinyl)-2-fluoro-5-methyl-N-(methylsulfonyl)benzamide] | < 5.52 | 7.08 | – | – | –
14 | COc1cc(C(=O)NS(C)(=O)=O)c(F)cc1-c1cnc(Oc2ccc(C)c(F)c2)c(Cl)c1 [Example 698, 4-(5-chloro-6-(3-fluoro-4-methylphenoxy)-3-pyridinyl)-2-fluoro-5-methoxy-N-(methylsulfonyl)benzamide] | 5.22 | 7.23 | – | – | –
15 | Cc1cc(C(=O)NS(C)(=O)=O)c(F)cc1-c1cnc(N2CCC[C@@H]2c2ccc(Cl)c(Cl)c2)c(Cl)c1 [Example 658, 4-(5-chloro-6-((2R)-2-(3,4-dichlorophenyl)-1-pyrrolidinyl)-3-pyridinyl)-2-fluoro-5-methyl-N-(methylsulfonyl)benzamide, 4-(5-chloro-6-((2S)-2-(3,4-dichlorophenyl)-1-pyrrolidinyl)-3-pyridinyl)-2-fluoro-5-methyl-N-(methylsulfonyl)benzamide] | < 5.52 | 7.05 | – | – | –
16 | CC[C@@H](Oc1ncc(-c2cc(F)c(C(=O)NS(C)(=O)=O)cc2C)cc1Cl)c1ccc(F)cc1 [Example 650, 4-(5-chloro-6-(((1R)-1-(4-fluorophenyl)propyl)oxy)-3-pyridinyl)-2-fluoro-5-methyl-N-(methylsulfonyl)benzamide] | < 5.52 | 7.10 | – | – | –
17 | CNS(=O)(=O)NC(=O)c1ccc(-c2cnc(Oc3cc(Cl)cc(Cl)c3)c(Cl)c2)c(OC)c1 [Example 772, 4-(5-Chloro-6-(3,5-Dichlorophenoxy)Pyridin-3-yl)-3-Methoxy-N—(N-Methylsulfamoyl)Benzamide] | – | – | < 5.52 | 7.09 | –
18 | Cc1cc(C(=O)NS(C)(=O)=O)c(F)cc1-c1cnc(Oc2c(Cl)ccc(C)c2F)c(Cl)c1 [Example 670, 4-(5-chloro-6-(6-chloro-2-fluoro-3-methylphenoxy)-3-pyridinyl)-2-fluoro-5-methyl-N-(methylsulfonyl)benzamide] | < 5.00 | 7.08 | – | – | –
19 | Cc1cc(C(=O)NS(C)(=O)=O)c(F)cc1-c1cnc(Oc2cc(Cl)ccc2F)c(Cl)c1 [Example 617, 4-(5-chloro-6-(5-chloro-2-fluorophenoxy)-3-pyridinyl)-2-fluoro-5-methyl-N-(methylsulfonyl)benzamide] | < 5.52 | 7.03 | – | – | –
20 | Cc1cc(C(=O)NS(C)(=O)=O)c(F)cc1-c1cnc(Oc2ccc(F)c(F)c2F)c(Cl)c1 [Example 615, 4-(5-chloro-6-(2,3,4-trifluorophenoxy)-3-pyridinyl)-2-fluoro-5-methyl-N-(methylsulfonyl)benzamide] | < 5.52 | 7.12 | – | – | –
21 | Cc1ccc(Cl)cc1Oc1ncc(-c2cc(F)c(C(=O)NS(C)(=O)=O)cc2C)cc1Cl [Example 616, 4-(5-chloro-6-(5-chloro-2-methylphenoxy)-3-pyridinyl)-2-fluoro-5-methyl-N-(methylsulfonyl)benzamide] | < 5.52 | 7.15 | – | – | –
22 | Cc1cc(C(=O)NS(C)(=O)=O)c(F)cc1-c1cnc(Oc2cc(F)ccc2F)c(Cl)c1 [Example 605, 4-(5-chloro-6-(2,5-difluorophenoxy)-3-pyridinyl)-2-fluoro-5-methyl-N-(methylsulfonyl)benzamide] | < 5.52 | 7.34 | – | – | –
23 | CC[C@@H](Oc1ncc(-c2cc(F)c(C(=O)NS(C)(=O)=O)cc2C)cc1Cl)c1ccc(F)c(C)c1 [Example 675, 4-(5-chloro-6-(((1R)-1-(4-fluoro-3-methylphenyl)propyl)oxy)-3-pyridinyl)-2-fluoro-5-methyl-N-(methylsulfonyl)benzamide] | < 5.00 | 7.27 | – | – | –
24 | Cc1ccc(Oc2ncc(-c3cc(F)c(C(=O)NS(C)(=O)=O)cc3C)cc2Cl)cc1F [Example 623, 4-(5-chloro-6-(3-fluoro-4-methylphenoxy)-3-pyridinyl)-2-fluoro-5-methyl-N-(methylsulfonyl)benzamide] | – | 7.31 | – | – | 5.32
25 | Cc1ccc(Oc2ncc(-c3cc(F)c(C(=O)NS(C)(=O)=O)cc3Cl)cc2Cl)cc1F [Example 591, 5-chloro-4-(5-chloro-6-(3-fluoro-4-methylphenoxy)-3-pyridinyl)-2-fluoro-N-(methylsulfonyl)benzamide] | < 5.52 | 7.07 | – | – | –
26 | Cc1cc(C(=O)NS(C)(=O)=O)c(F)cc1-c1cnc(O[C@H](C)c2cc(F)c(F)cc2F)c(Cl)c1 [Example 660, 4-(5-chloro-6-((1R)-1-(2,4,5-trifluorophenyl)ethoxy)-3-pyridinyl)-2-fluoro-5-methyl-N-(methylsulfonyl)benzamide, 4-(5-chloro-6-((1S)-1-(2,4,5-trifluorophenyl)ethoxy)-3-pyridinyl)-2-fluoro-5-methyl-N-(methylsulfonyl)benzamide] | 5.19 | 7.03 | – | – | –
27 | CCS(=O)(=O)NC(=O)c1ccc(-c2cnc(Oc3c(C)cc(Cl)cc3Cl)c(Cl)c2)c(OC)c1 [Example 788, 4-(5-chloro-6-(2,4-dichloro-6-methylphenoxy)-3-pyridinyl)-N-(ethylsulfonyl)-3-methoxybenzamide] | – | – | 5.86 | 7.61 | –
